Data on 73 compounds can be found in the SangsterLogP compilation.

A short description of data set [1]: method code SF-HPLC, from DOI: 10.1002/jps.1029, PMID: 11357176.

`Cc1coc2cc3oc(=O)ccc3c(C)c12` had a logP of 2.79. `Cc1c(C)c2ccc3occ(C)c3c2oc1=O` showed a logP of 3.25. Still for that read-out and setting: under `Cc1c(C)c2cc3c(C)coc3c(C)c2oc1=O` stands 3.62. With `O=c1ccc2cc3ccsc3cc2s1`, the logP stood at 2.96. In turn, `Cc1cc(=O)oc2c1ccc1occ(C)c12` yielded a logP of 2.81.

Take `Cc1oc2c(C)cc3c(C)cc(O)nc3c2c1C`: the logP turned out to be 3.5. Turning to `Cc1coc2c1c(C)cc1oc(=O)cc(C)c12`, the logP was 3.28.

Turning to `Cc1cc(=O)oc2c1ccc1occc12`, the logP amounted to 2.34. With `Cc1cc2c(ccc3cc(C)c(=O)oc32)o1`, the logP was found to be 2.97. Still for that read-out and setting: under `Cc1c(C)c2occc2c2oc(=O)ccc12` stands 2.84; under `Cc1cc2c(C)cc3oc(=O)cc(C)c3c2o1`, 3.25. Same read-out and setting: the same measure for `O=c1ccc2cc3ccsc3cc2o1`: 2.27; for `Cc1cc2ccc3occc3c2oc1=O`: 2.49.

As for `Cc1cc2c(cc(C)c3ccc(=O)oc32)o1`, the logP worked out at 2.92.

The compound `Cc1sc2cc3oc(=O)cc(C)c3cc2c1C` returned a logP of 3.48. The same measure, in the same setting: the same measure for `Cc1oc2ccc3c(C)cc(=O)oc3c2c1C`: 3.28; for `Cc1cc2cc3ccc(=O)oc3c(C)c2o1`: 2.93. In turn, `Cc1coc2nc3oc(=O)cc(C)c3c(C)c12` displayed a logP of 2.25.

`Cc1coc2nc3oc(=O)ccc3c(C)c12` came in with a log partition coefficient (logP) of 1.73. As to `Cc1oc2c(C)cc3ccc(=O)oc3c2c1C`, the logP was 3.34. Regarding `Cc1cc(=O)oc2c(C)c3occc3cc12`, the logP is 2.82.

`Cc1cc2ccc(=O)oc2c2c(C)coc12` yielded a logP of 2.88. Same read-out and setting: under `COc1c2occc2cc2ccc(=O)sc12` stands 2.66.

The compound `Cc1oc2ccc3c(C)cc(=O)[nH]c3c2c1C` returned a logP of 3.18.

For the compound `Cc1cc2c(C)c3ccc(=O)oc3cc2o1`, the logP worked out at 2.84. Same read-out and setting: under `Cc1cc2c(ccc3c(C)cc(=O)oc32)o1` stands 2.79.

For the compound `COc1c2oc(=O)c(C)cc2cc2c(C)c(C)oc12`, the lipophilicity (logP) is 3.28. With `Cc1cc(=O)[nH]c2c1cc(C)c1occ(C)c12`, the logP amounted to 3.13. Consider `O=c1ccc2cc3ccoc3cc2o1`, for which the logP in data set [1] worked out at 2.08. Compound `Cc1oc2cc3oc(=O)ccc3cc2c1C` came in with a logP of 2.93. Same read-out and setting: under `Cc1cc2c(o1)c(C)c(C)c1ccc(=O)oc12` stands 3.26; under `Cc1c(C)c2cc3ccoc3cc2oc1=O`, 2.77; under `Cc1c2occc2cc2ccc(=O)oc12`, 2.48. Same read-out and setting: under `O=c1ccc2ccc3occc3c2[nH]1` stands 1.82; under `Cc1cc2occc2c2oc(=O)ccc12`, 2.5; under `Cc1cc(=O)oc2c1cc(C)c1occ(C)c12`, 3.23.

In turn, `Cc1cc2c(o1)c(C)cc1ccc(=O)oc12` had a logP of 2.85. Take `COc1c2occc2cc2ccc(=O)oc12`: in data set [1], the logP was 2.07. For `Cc1cc(=O)n(C)c2c1cc(C)c1occ(C)c12`, the logP was determined as 3.3. Still for that read-out and setting: the same measure for `Cc1oc2nc3oc(=O)ccc3c(C)c2c1C`: 2.19.

Turning to `Cc1coc2cc3oc(=O)cc(C)c3cc12`, the log partition coefficient (logP) is 2.76.

For `O=c1ccc2cc3ccoc3cc2s1`, the logP was found to be 2.61. Regarding `Cc1oc2ccc3ccc(=O)oc3c2c1C`, the logP is 2.94. For the compound `Cc1cc(=O)oc2c1cc(C)c1occc12`, the logP was 2.79.

Compound `Cc1c2ccoc2cc2oc(=O)ccc12` came in with a logP of 2.33.

As for `Cc1coc2ccc3ccc(=O)oc3c12`, the logP amounted to 2.51. On the same count and under the same terms, under `Cc1cc2c(cc(C)c3c(C)cc(=O)oc32)o1` stands 3.36.

Regarding `Cc1cc2c(ccc3c(C)c(C)c(=O)oc32)o1`, the logP turned out to be 3.27. For the compound `Cc1coc2c(C)c3oc(=O)ccc3cc12`, the logP is 2.81. Compound `Cc1c(C)c2cc3c(C)coc3nc2oc1=O` registered a logP of 2.25.

Consider `Cc1oc2cc3oc(=O)ncc3cc2c1C`, for which the lipophilicity (logP) stood at 1.97.

Turning to `Cc1coc2c(C)c3oc(=O)cc(C)c3cc12`, the logP was found to be 3.25. `Cc1sc2ccc3c(C)cc(=O)oc3c2c1C`: the logP was 3.65. The same measure, in the same setting: under `Cc1c(C)c2cc(C)c3occc3c2oc1=O` stands 3.23; under `Cc1cc2c(o1)c(C)cc1c(C)cc(=O)oc12`, 3.15.

For the compound `Cc1cc2ccc3occ(C)c3c2oc1=O`, the logP came to 2.97. Take `Cc1cc2cc3c(C)cc(=O)oc3c(C)c2o1`: the log partition coefficient (logP) was found to be 3.25. The same measure, in the same setting: the same measure for `Cc1cc2c(ccc3c(C)c(C)c(=O)n(C)c32)o1`: 3.54. The compound `Cc1cc2c(ccc3c(C)cc(=O)n(C)c32)o1` showed a logP of 3.08. With `Cc1cc2occ(C)c2c2oc(=O)ccc12`, the log partition coefficient (logP) is 2.92. The same measure, in the same setting: under `Cc1cc2cc3c(C)cc(=O)oc3cc2o1` stands 2.82; under `Cc1coc2nc3oc(=O)cc(C)c3cc12`, 1.82. The same measure, in the same setting: under `Cc1cc2c(o1)c(C)cc1c(C)cc(=O)n(C)c12` stands 3.43.

`Cc1sc2c(C)cc3c(C)cc(=O)oc3c2c1C` displayed a lipophilicity (logP) of 4.09. On the same count and under the same terms, under `Cc1c(C)c2cc3ccoc3c(C)c2oc1=O` stands 3.25; under `Cc1cc2ccc(=O)oc2c2ccoc12`, 2.43; under `Cc1oc2cc3oc(=O)ccc3c(C)c2c1C`, 3.27.

Regarding `Cc1coc2cc3oc(=O)ccc3cc12`, the logP turned out to be 2.47.

In turn, `Cc1c2oc(=O)ccc2c(C)c2c(C)coc12` yielded a logP of 3.35. Still for that read-out and setting: under `Cc1oc2cc3oc(=O)cc(C)c3cc2c1C` stands 3.22; under `O=c1ccc2ccc3occc3c2s1`, 2.58; under `Cc1cc2c(ccc3ccc(=O)oc32)o1`, 2.49.

With `Cc1oc2nc3oc(=O)c(C)c(C)c3cc2c1C`, the logP stood at 2.71.

By logP is commonly meant the decadic logarithm of the partition coefficient of the neutral form, usually between octanol and water.
